Measurements reported in PubChem BioAssay (NCI).
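Compound exposure: 48 hours, 5 concentrations, 96-well plates. Here, GI50 denotes the concentration required for 50% inhibition of growth. TGI: total growth inhibition.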

Experiments:
Test in all cases: NCI anticancer screen, dose series, 48 h
[1] = tested on: 786-0 renal
[2] = tested on: A498 renal
[3] = tested on: ACHN renal
[4] = tested on: BT-549 breast
[5] = tested on: CAKI-1 renal
[6] = tested on: CCRF-CEM leukemia
[7] = tested on: COLO 205 colon
[8] = tested on: DU-145 prostate
[9] = tested on: EKVX NSCLC
[10] = tested on: HCC-2998 colon
[11] = tested on: HCT-116 colon
[12] = tested on: HCT-15 colon
[13] = tested on: HL-60(TB) leukemia
[14] = tested on: HOP-62 NSCLC
[15] = tested on: HOP-92 NSCLC
[16] = tested on: HS 578T breast
[17] = tested on: HT29 colon
[18] = tested on: IGROV1 ovarian
[19] = tested on: K-562 leukemia
[20] = tested on: KM12 colon
[21] = tested on: LOX IMVI melanoma
[22] = tested on: M14 melanoma
[23] = tested on: MALME-3M melanoma
[24] = tested on: MCF7 breast
[25] = tested on: MDA-MB-231 breast
[26] = tested on: MDA-MB-435
[27] = tested on: MOLT-4 leukemia
[28] = tested on: NCI-H226 lung
[29] = tested on: NCI-H23 lung
[30] = tested on: NCI-H460 lung
[31] = tested on: NCI-H522 lung
[32] = tested on: NCI/ADR-RES ovarian
[33] = tested on: OVCAR-3 ovarian
[34] = tested on: OVCAR-4 ovarian
[35] = tested on: OVCAR-5 ovarian
[36] = tested on: OVCAR-8 ovarian
[37] = tested on: PC-3 prostate
[38] = tested on: RPMI-8226 leukemia
[39] = tested on: RXF 393 renal
[40] = tested on: SF-268 CNS
[41] = tested on: SF-295 CNS
[42] = tested on: SF-539 CNS
[43] = tested on: SK-MEL-2 melanoma
[44] = tested on: SK-MEL-28 melanoma
[45] = tested on: SK-MEL-5 melanoma
[46] = tested on: SK-OV-3 ovarian
[47] = tested on: SN12C renal
[48] = tested on: SNB-19 CNS
[49] = tested on: SNB-75 CNS
[50] = tested on: SR leukemia
[51] = tested on: SW-620 colon
[52] = tested on: T-47D breast
[53] = tested on: U251 CNS
[54] = tested on: UACC-257 melanoma
[55] = tested on: UACC-62 melanoma
[56] = tested on: A549 NSCLC
[57] = tested on: TK-10 renal
[58] = tested on: UO-31 renal

In the case of `CN(C)CCCn1c(=O)c2ccccc2c2cnc3[nH]ccc3c21`, the GI50 [1] was 0.85 µM, the TGI [1] was 10.9 µM and the GI50 [2] was 1.03 µM. The TGI [2] was 2.37 µM, the GI50 [3] was 0.564 µM and the TGI [3] was 7.08 µM. It also gave a GI50 [4] of 2.95 µM, a TGI [4] of 9.58 µM and a GI50 [5] of 1.94 µM. The TGI [5] was 4.66 µM, the GI50 [6] was 1.53 µM and the TGI [6] was 8.44 µM. It also gave a GI50 [7] of 0.686 µM, a TGI [7] of 3.54 µM and a GI50 [8] of 2.14 µM. For the same compound, the TGI [8] was 8.97 µM, the GI50 [9] was 2.27 µM and the TGI [9] was 8.43 µM. It also gave a GI50 [10] of 2.03 µM, a TGI [10] of 7.72 µM and a GI50 [11] of 0.486 µM. It also gave a TGI [11] of 10.3 µM, a GI50 [12] of 2 µM and a TGI [12] of 9.58 µM. For the same compound, the GI50 [13] was 3.27 µM, the TGI [13] was 9.08 µM and the GI50 [14] was 1.49 µM. The TGI [14] was 5.72 µM, the GI50 [15] was 1.8 µM and the TGI [15] was 8.16 µM. It also gave a GI50 [16] of 2.53 µM, a TGI [16] of 11.2 µM and a GI50 [17] of 1.27 µM. For the same compound, the TGI [17] was 8.35 µM, the GI50 [18] was 2.28 µM and the TGI [18] was 11.7 µM. For the same compound, the GI50 [19] was 2.03 µM, the TGI [19] was 11.5 µM and the GI50 [20] was 1.63 µM. The TGI [20] was 9.78 µM, the GI50 [21] was 0.631 µM and the TGI [21] was 3.27 µM. For the same compound, the GI50 [22] was 1.83 µM, the TGI [22] was 4.44 µM and the GI50 [23] was 1.69 µM. The TGI [23] was 4.55 µM, the GI50 [24] was 2.74 µM and the TGI [24] was 11.3 µM. For the same compound, the GI50 [25] was 1.99 µM, the TGI [25] was 8.83 µM and the GI50 [26] was 1.76 µM. It also gave a TGI [26] of 6.66 µM, a GI50 [27] of 0.838 µM and a TGI [27] of 11 µM. The GI50 [28] was 0.862 µM, the TGI [28] was 2.58 µM and the GI50 [29] was 1.76 µM. The TGI [29] was 6.62 µM, the GI50 [30] was 0.8 µM and the TGI [30] was 2.62 µM. It also gave a GI50 [31] of 1.82 µM, a TGI [31] of 5.03 µM and a GI50 [32] of 1.25 µM. The TGI [32] was 6.24 µM, the GI50 [33] was 2.4 µM and the TGI [33] was 6.35 µM. For the same compound, the GI50 [34] was 1.92 µM, the TGI [34] was 8.63 µM and the GI50 [35] was 2.27 µM. For the same compound, the TGI [35] was 14.9 µM, the GI50 [36] was 1.43 µM and the TGI [36] was 6.88 µM. For the same compound, the GI50 [37] was 1.69 µM, the TGI [37] was 11.1 µM and the GI50 [38] was 2.23 µM. For the same compound, the TGI [38] was 7.3 µM, the GI50 [39] was 1.4 µM and the TGI [39] was 3.99 µM. It also gave a GI50 [40] of 1.44 µM, a TGI [40] of 5.02 µM and a GI50 [41] of 1.18 µM. For the same compound, the TGI [41] was 6.65 µM, the GI50 [42] was 2.34 µM and the TGI [42] was 7.04 µM. It also gave a GI50 [43] of 1.79 µM, a TGI [43] of 5.38 µM and a GI50 [44] of 2.23 µM. It also gave a TGI [44] of 5.18 µM, a GI50 [45] of 1.77 µM and a TGI [45] of 3.51 µM. For the same compound, the GI50 [46] was 1.97 µM, the TGI [46] was 7.11 µM and the GI50 [47] was 2.17 µM. The TGI [47] was 14.6 µM, the GI50 [48] was 2.19 µM and the TGI [48] was 10.6 µM. It also gave a GI50 [49] of 1.17 µM, a TGI [49] of 3.6 µM and a GI50 [50] of 0.63 µM. For the same compound, the TGI [50] was 13.6 µM, the GI50 [51] was 0.529 µM and the TGI [51] was 3.66 µM. It also gave a GI50 [52] of 2.5 µM, a TGI [52] of 7.42 µM and a GI50 [53] of 2.12 µM. It also gave a TGI [53] of 7.21 µM, a GI50 [54] of 2.26 µM and a TGI [54] of 5.59 µM. For the same compound, the GI50 [55] was 1.59 µM and the TGI [55] was 2.97 µM.
`Cc1ccc(S(=O)(=O)NC(=O)C2=C3SCCN3C(=O)N(S(=O)(=O)c3ccc(C)cc3)C2c2ccccc2)cc1` (configuration not stated) gave a TGI [1] greater than 100 µM, a TGI [2] greater than 100 µM and a TGI [56] greater than 100 µM. For the same compound, the TGI [3] was greater than 100 µM, the TGI [4] was greater than 100 µM and the TGI [5] was greater than 100 µM. The TGI [6] was 60.5 µM, the TGI [7] was 43.6 µM and the TGI [8] was greater than 100 µM. The TGI [9] was greater than 100 µM, the TGI [10] was 48 µM and the TGI [11] was greater than 100 µM. The TGI [12] was greater than 100 µM, the TGI [13] was greater than 100 µM and the TGI [14] was greater than 100 µM. For the same compound, the TGI [15] was greater than 100 µM, the TGI [16] was greater than 100 µM and the TGI [17] was greater than 100 µM. The TGI [18] was greater than 100 µM, the TGI [19] was greater than 100 µM and the TGI [20] was 71.6 µM. The TGI [21] was greater than 100 µM, the TGI [22] was greater than 100 µM and the TGI [23] was greater than 100 µM. For the same compound, the TGI [24] was 90.7 µM, the TGI [25] was greater than 100 µM and the TGI [26] was 61 µM. For the same compound, the TGI [27] was greater than 100 µM, the TGI [28] was greater than 100 µM and the TGI [29] was greater than 100 µM. It also gave a TGI [30] greater than 100 µM, a TGI [31] of 46.7 µM and a TGI [32] greater than 100 µM. It also gave a TGI [33] of 59.1 µM, a TGI [34] greater than 100 µM and a TGI [35] greater than 100 µM. For the same compound, the TGI [36] was greater than 100 µM, the TGI [37] was greater than 100 µM and the TGI [38] was 92.3 µM. It also gave a TGI [39] of 78.7 µM, a TGI [40] greater than 100 µM and a TGI [41] greater than 100 µM. The TGI [42] was 61.6 µM, the TGI [43] was greater than 100 µM and the TGI [44] was greater than 100 µM. For the same compound, the TGI [46] was 66.8 µM, the TGI [47] was greater than 100 µM and the TGI [48] was greater than 100 µM. The TGI [49] was greater than 100 µM, the TGI [50] was greater than 100 µM and the TGI [51] was greater than 100 µM. The TGI [52] was greater than 100 µM, the TGI [57] was greater than 100 µM and the TGI [53] was greater than 100 µM. It also gave a TGI [54] greater than 100 µM, a TGI [55] greater than 100 µM and a TGI [58] greater than 100 µM.
